Tests used:
H1 histamine receptor = target: T1, H1 histamine receptor (Bos taurus, UniProt P30546); assay: H1 binding assay ([3H]pyrilamine displacement); design: species or system bovine; settings: average N=2
T1 construct: the receptors were obtained from bovine cerebellar membrane tissue; from tissue; host or cells: bovine cerebellar membranes

M3 muscarinic receptor = target: T2, M3 muscarinic receptor (Homo sapiens, UniProt P20309); assay: M3 binding assay ([3H]-scopolamine, N-methyl chloride displacement); settings: average N=2
T2 construct: purchased PerkinElmer, Inc., Wellesley, Mass; host or cells: CHO cells
T2 sequence (P20309 whole entry): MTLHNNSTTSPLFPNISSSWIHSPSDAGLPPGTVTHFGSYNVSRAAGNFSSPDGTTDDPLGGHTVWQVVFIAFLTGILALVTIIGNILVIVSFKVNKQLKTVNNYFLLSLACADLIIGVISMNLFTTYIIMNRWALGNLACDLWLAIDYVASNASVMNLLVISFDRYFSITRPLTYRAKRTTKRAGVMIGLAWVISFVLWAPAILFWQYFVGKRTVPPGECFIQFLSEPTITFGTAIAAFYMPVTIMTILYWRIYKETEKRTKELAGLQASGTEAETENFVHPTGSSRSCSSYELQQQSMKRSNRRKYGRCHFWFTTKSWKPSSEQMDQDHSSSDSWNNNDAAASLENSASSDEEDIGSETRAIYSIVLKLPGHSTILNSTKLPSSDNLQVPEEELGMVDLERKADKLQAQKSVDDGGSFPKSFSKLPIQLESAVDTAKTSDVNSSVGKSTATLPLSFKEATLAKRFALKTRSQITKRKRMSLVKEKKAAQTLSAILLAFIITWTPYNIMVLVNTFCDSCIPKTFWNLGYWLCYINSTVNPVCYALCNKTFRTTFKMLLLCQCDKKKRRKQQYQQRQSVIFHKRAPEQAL

Histamine, H1 = Histamine, H1 (Bos taurus, UniProt P30546); assay: Binding specificity panel; settings: 1.0E−6; average N=2
Histamine, H1, sequence (P30546 whole entry): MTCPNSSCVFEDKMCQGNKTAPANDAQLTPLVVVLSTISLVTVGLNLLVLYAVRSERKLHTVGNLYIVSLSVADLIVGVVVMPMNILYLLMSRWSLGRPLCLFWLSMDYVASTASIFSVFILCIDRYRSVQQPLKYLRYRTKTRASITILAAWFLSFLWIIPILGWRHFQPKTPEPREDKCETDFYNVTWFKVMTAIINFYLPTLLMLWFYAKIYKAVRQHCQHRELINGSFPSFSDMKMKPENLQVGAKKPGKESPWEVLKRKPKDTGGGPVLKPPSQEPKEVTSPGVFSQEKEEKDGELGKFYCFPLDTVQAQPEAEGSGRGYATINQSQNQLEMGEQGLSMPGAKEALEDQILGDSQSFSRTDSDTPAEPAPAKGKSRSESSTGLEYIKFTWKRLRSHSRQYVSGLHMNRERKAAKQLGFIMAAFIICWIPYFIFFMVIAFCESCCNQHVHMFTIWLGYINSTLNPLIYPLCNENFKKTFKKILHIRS
Description: The percentage inhibition (average; N=2) for these receptors is shown below in Table 12.
Values in Table 12 are expressed as percentage inhibition of specific binding, and these values represent the average of replicate tubes at each of the concentrations tested.

male Wistar rats = assay: SCORE-2000 sleep-wakefulness, locomotor activity and body temperature monitoring

T1 sequence (P30546 whole entry): as above

In the case of `CC(CC(=O)O)N1CCC(=C2c3ccc(F)cc3COc3ccccc32)CC1` (stereo not shown) [Compound 37], the “% Inhibition, H1” value (H1 histamine receptor; concentration 1.0E−5) is reported as 95.79%, the “% Specific Binding, H1” value (H1 histamine receptor; concentration 1.0E−5) is reported as 3.21% and the “% Inhibition, H1” value (H1 histamine receptor; concentration 1.0E−6) is reported as 93.75%. For the same compound, the “% Specific Binding, H1” value (H1 histamine receptor; concentration 1.0E−6) was 6.25%, the “% Inhibition, H1” value (H1 histamine receptor; concentration 1.0E−7) was 60.82% and the “% Specific Binding, H1” value (H1 histamine receptor; concentration 1.0E−7) was 39.18%. The “% Inhibition, H1” value (H1 histamine receptor; concentration 1.0E−8) was 8.60%, the “% Specific Binding, H1” value (H1 histamine receptor; concentration 1.0E−8) was 91.40% and the “% Inhibition, H1” value (H1 histamine receptor; concentration 1.0E−9) was 2.99%. For the same compound, the “% Specific Binding, H1” value (H1 histamine receptor; concentration 1.0E−9) was 97.01%, the “% Specific Binding, H1” value (H1 histamine receptor; concentration 3.0E−6) was 6.74% and the “% Inhibition, H1” value (H1 histamine receptor; concentration 3.0E−7) was 81.03%. For the same compound, the “% Specific Binding, H1” value (H1 histamine receptor; concentration 3.0E−7) was 18.97%, the “% Inhibition, H1” value (H1 histamine receptor; concentration 3.0E−8) was 30.37% and the “% Specific Binding, H1” value (H1 histamine receptor; concentration 3.0E−8) was 69.53%. The “% Inhibition, M3” value (M3 muscarinic receptor; concentration 1.0E−5) was 4.27%, the “% Specific Binding, M3” value (M3 muscarinic receptor; concentration 1.0E−5) was 95.73% and the “% Inhibition, M3” value (M3 muscarinic receptor; concentration 1.0E−6) was 0.79%. For the same compound, the “% Specific Binding, M3” value (M3 muscarinic receptor; concentration 1.0E−6) was 99.21%, the “% Inhibition, M3” value (M3 muscarinic receptor; concentration 1.0E−7) was 5.85% and the “% Specific Binding, M3” value (M3 muscarinic receptor; concentration 1.0E−7) was 93.15%. The “% Inhibition, M3” value (M3 muscarinic receptor; concentration 1.0E−8) was −8.34%, the “% Specific Binding, M3” value (M3 muscarinic receptor; concentration 1.0E−8) was 108.34% and the “% Inhibition, M3” value (M3 muscarinic receptor; concentration 1.0E−9) was −0.65%. For the same compound, the “% Specific Binding, M3” value (M3 muscarinic receptor; concentration 1.0E−9) was 100.65%, the “% Specific Binding, M3” value (M3 muscarinic receptor; concentration 3.0E−6) was 94.59% and the “% Specific Binding, M3” value (M3 muscarinic receptor; concentration 3.0E−7) was 94.45%. The “% Inhibition, M3” value (M3 muscarinic receptor; concentration 3.0E−8) was 6.99%, the “% Specific Binding, M3” value (M3 muscarinic receptor; concentration 3.0E−8) was 93.01% and the “percentage inhibition of specific binding” value (Histamine, H1) was 23.13%. The REM inhibition (male Wistar rats; 10 mg/kg) was “did not produce any”, the rebound insomnia (male Wistar rats; 10 mg/kg) was “did not produce any” and the “reduction in body temperature” value (male Wistar rats; 10 mg/kg) was “no disproportional reduction”. The “reduction in locomotor activity (LMA)” value (male Wistar rats; 10 mg/kg) was “no disproportional reduction”, the “Cumulative NREM sleep time increase, adjusted for baseline and relative to vehicle” value (male Wistar rats; 10 mg/kg PO, CT-18) was 53 min and the “absolute average sleep bout” value (male Wistar rats; 10 mg/kg PO, CT-18) was 9 min. For the same compound, the “average sleep bout length increase, adjusted for baseline and relative to vehicle” value (male Wistar rats; 10 mg/kg PO, CT-18) was 5.3 min, the “peak NREM sleep time” value (male Wistar rats; 10 mg/kg PO, CT-18) was 64 % per hour and the body temperature (male Wistar rats; 30 mg/kg) was “unacceptable drop in body temperature”. For the same compound, the “reduction in LMA” value (male Wistar rats; 30 mg/kg) was “no disproportional reduction”, the “Cumulative NREM sleep time increase, adjusted for baseline and relative to vehicle” value (male Wistar rats; 30 mg/kg PO, CT-18) was 62 min and the “absolute average sleep bout” value (male Wistar rats; 30 mg/kg PO, CT-18) was 9 min. The “absolute longest sleep bout post-treatment” value (male Wistar rats; 30 mg/kg PO, CT-18) was 25 min, the “average sleep bout length increase, adjusted for baseline and relative to vehicle” value (male Wistar rats; 30 mg/kg PO, CT-18) was 5.6 min and the “peak NREM sleep time” value (male Wistar rats; 30 mg/kg PO, CT-18) was 72 % per hour. For the same compound, the REM inhibition (male Wistar rats; 30 mg/kg, CT-18) was “did not produce any appreciable REM inhibition”.
